In patent publication US4578489A (priority 1982, dated 1986):
Like-named read-outs stand apart in the source and are kept apart here.

Columns and labels:
Aspergillus niger = assay: Minimum inhibitory concentration against fungi, agar incorporation test, strain K; format: cell-based; conditions: malt extract/agar
Outline: (§1)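 MIC (mg/liter) defined as the concentration inhibiting fungal growth from dropwise trace inoculum on malt extract agar containing compound at 2, 5, 10, 50 or 100 mg/liter final.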

Serratia marcencens = assay: Minimum inhibitory concentration against bacteria, strain D; format: cell-based; conditions: 24 hours at 30° C.; tested at 100 and 300 mg/liter
Outline: (§2)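 Inhibition is judged from sample turbidity in Caso peptone broth containing compound at 100 and 300 mg/liter. Inocula come from overnight cultures diluted 1/1000 in saline and a further 1/1000 in broth; incubation lasts 24 hours at 30° C. with shaking.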

Bacillus subtilis = assay: Minimum inhibitory concentration against bacteria, strain F; format: cell-based; conditions: 24 hours at 30° C.; tested at 100 and 300 mg/liter
Outline: as §2

Candida albicans = assay: Minimum inhibitory concentration against fungi, agar incorporation test, strain P; format: cell-based; conditions: malt extract/agar
Outline: as §1

Endomyces geotrichum = assay: Minimum inhibitory concentration against fungi, agar incorporation test, strain Q; format: cell-based; conditions: malt extract/agar
Outline: as §1

Chlorella vulgaris = assay: Action against algae: Chlorella vulgaris; format: cell-based; set-up: key: --: no growth on the agar, 3 ppm have destroyed the algae in 6 hours; conditions: 3 mg/liter
Outline: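 14-day cultures diluted 1/200 in nutrient medium received compound at 3 mg/liter final. After 6 h, samples were spotted on algae/agar for algicidal action; growth inhibition in medium and killing on agar assessed visually after 14 days under 14 h light/10 h dark.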

Pseudomonas aeruginosa = assay: Minimum inhibitory concentration against bacteria, strain B; format: cell-based; conditions: 24 hours at 30° C.; tested at 100 and 300 mg/liter
Outline: as §2

[1] = system: Cladosporium cladosporioides; assay: Minimum inhibitory concentration against fungi, agar incorporation test, strain O; format: cell-based; conditions: malt extract/agar
Outline: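 Compounds incorporated into malt extract agar at final concentrations of 2, 5, 10, 50 and 100 mg/liter, with fungal traces added dropwise. Value is the concentration (mg/liter) required to inhibit fungal growth.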

Aureobasidium pullulans [2] = assay: Growth on wood; set-up: key: 1: growth on the wood; 2: slight growth on the wood; 3: no growth on the wood; 4: no growth on the wood and an inhibitory zone; conditions: 28°, 4 weeks
Procedure: Small blocks of spruce wood, 7×10×10 mm in size, are dried in vacuo. The small blocks are then vacuum-impregnated by keeping them, in vacuo, in 100 ml of distilled water+biocide for 30 minutes and then subjecting them to a pressure treatment (2 atmospheres gauge by means of compressed air) for 18 hours in the water. The pieces of wood treated in this way are first subjected to leaching in running water and are then dried.
The dried pieces of wood are placed on potato/glucose agar and the wood, as well as the surrounding agar, is inoculated with 0.1 ml of a spore suspension of Aureobasidium pullulans. After incubation at 28° for 4 weeks, the growth is evaluated in accordance with the following rating: […]

Enterobacter aerogenes = assay: Minimum inhibitory concentration against bacteria, strain C; format: cell-based; conditions: 24 hours at 30° C.; tested at 100 and 300 mg/liter
Outline: as §2

Aureobasidium pullulans [3] = assay: Minimum inhibitory concentration against fungi, agar incorporation test, strain R; format: cell-based; conditions: malt extract/agar
Outline: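 Compounds incorporated in malt extract agar at final 2, 5, 10, 50 and 100 mg/liter. Agar inoculated dropwise with traces of fungus. Value is the concentration (mg/liter) needed to inhibit growth.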

[4] = system: Alcaligenes denitrificans; assay: Minimum inhibitory concentration against bacteria, strain E; format: cell-based; conditions: 24 hours at 30° C.; tested at 100 and 300 mg/liter
Outline: as §2

Proteus vulgaris = assay: Minimum inhibitory concentration against bacteria, strain A; format: cell-based; conditions: 24 hours at 30° C.; tested at 100 and 300 mg/liter
Outline: as §2

Chaetomium globosum = assay: Minimum inhibitory concentration against fungi, agar incorporation test, strain S; format: cell-based; conditions: malt extract/agar
Outline: as §1

Artemia salina = assay: Action against Artemia salina nauplii; format: in vivo; set-up: key: 0: no change; 1: slight change; 1-2: animals are attacked; 2: animals are strongly attacked; 2-3: animals are nearly all dead; 3: animals are all dead
Procedure: The eggs, which are available commercially, are caused to hatch by vigorous aeration. When 2-3 days old, the nauplii are exposed to the products at various concentrations (concentrations tested: 2.5; 1; 0.5 and 0.25 mg/liter) in synthetic seawater, and are observed over a prolonged period of time.

[5] = system: mixed culture of bacteria; format: cell-based; set-up: key: +: growth, no destruction; (+): growth less than that of control (>10 colonies), slight destruction; (-): slight growth (1-10 colonies); -: no growth, destruction
[6] = system: Enteromorpha intestinalis; assay: Action against Enteromorpha intestinalis: destruction (minimum killing concentration); format: in vivo; conditions: 4 hours in seawater, then 6-8 weeks in fresh seawater
Procedure: (§3) The action against the green alga Enteromorpha, which is the most important in seawter fouling, is investigated in sterile-filtered seawater containing an Erd-Schreiber solution. This solution is composed of a nutrient extract, phosphate and nitrate. The incubation of Enteromorpha intestinalis is carried out in a light thermostat at 18° C. under an alternation of 14 hours of light and 10 hours of darkness.
The algae which have been cultured in this way are exposed to the products under investigation for a short time (4 hours) in seawater. The minimum killing concentration (MKC) is determined by taking the algae out of the seawater containing a specific quantity of algicide, after the treatment time in the latter, washing the algae and investigating growth or mortality after incubation in fresh seawater for a further period of 6-8 weeks.
The minimum killing concentration (MKC) indicates the amount of substance required to cause such damage to the algae within a specific time that they can no longer recover in fresh seawater and die out.

Alternaria alternata = assay: Minimum inhibitory concentration against fungi, agar incorporation test, strain N; format: cell-based; conditions: malt extract/agar
Outline: as §1

Penicillium funiculosum = assay: Minimum inhibitory concentration against fungi, agar incorporation test, strain M; format: cell-based; conditions: malt extract/agar
Outline: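 Compounds incorporated into malt extract agar at final 2, 5, 10, 50 and 100 mg/liter, then inoculated dropwise with fungus. Value is the concentration (mg/liter) inhibiting growth.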

Aspergillus phoenicis = assay: Minimum inhibitory concentration against fungi, agar incorporation test, strain L; format: cell-based; conditions: malt extract/agar
Outline: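 Agar incorporation test in malt extract agar with compound at final 2, 5, 10, 50 and 100 mg/liter, inoculated dropwise with fungus; value is concentration (mg/liter) inhibiting growth.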

[7] = system: Enteromorpha intestinalis; assay: Action against Enteromorpha intestinalis: inhibitory concentration (MIC); format: in vivo; conditions: seawater containing biocide for entire test; concentration tested 0.5 mg/liter
Procedure: as §3
For determining the inhibitory concentration (MIC), the algae are kept in seawater containing biocide for the entire duration of the test (concentration tested: 0.5 mg/liter).

CCCCCCCCCCCC[n+]1ccccc1.CCC[CH2][Sn-]([Cl])([Cl])([CH2]CCC)[CH2]CCC [Example 6, Pyridine-Nlauryl / Tributyldichloro]
MIC against fungi, strain K (Aspergillus niger): 2 µg/mL
MIC against bacteria, strain D (Serratia marcencens): 100 µg/mL
MIC against bacteria, strain F (Bacillus subtilis): 100 µg/mL
MIC against fungi, strain P (Candida albicans): 5 µg/mL
MIC against fungi, strain Q (Endomyces geotrichum): 5 µg/mL
Growth on the agar (algae-destroying action) (Chlorella vulgaris; 6 hours exposure, 14 days incubation): --
Growth in the medium (growth inhibition) (Chlorella vulgaris; 14 days): --
MIC against bacteria, strain B (Pseudomonas aeruginosa): 100 µg/mL
MIC against fungi, strain O [1]: 2 µg/mL
growth on wood, leached for 5 days (Aureobasidium pullulans [2]; 0.01 % in H2 O): 4
growth on wood, not leached (Aureobasidium pullulans [2]; 0.01 % in H2 O): 4
growth on wood, leached for 5 days (Aureobasidium pullulans [2]; 0.05 % in H2 O): 4
growth on wood, not leached (Aureobasidium pullulans [2]; 0.05 % in H2 O): 4
MIC against bacteria, strain C (Enterobacter aerogenes): 100 µg/mL
MIC against fungi, strain R (Aureobasidium pullulans [3]): 2 µg/mL
MIC against bacteria, strain E [4]: 100 µg/mL
MIC against bacteria, strain A (Proteus vulgaris): 100 µg/mL
MIC against fungi, strain S (Chaetomium globosum): 2 µg/mL
Action against Artemia salina (Artemia salina; 0,5 mg/l, 6 hours): 1-2
Action against Artemia salina (Artemia salina; 0,5 mg/l, 24 hours): 2-3
Action against Artemia salina (Artemia salina; 0,5 mg/l, 48 hours): 3
Action against Artemia salina (Artemia salina; 0,25 mg/l, 6 hours): 1
Action against Artemia salina (Artemia salina; 0,25 mg/l, 24 hours): 2
Action against Artemia salina (Artemia salina; 0,25 mg/l, 48 hours): 2-3
Action against Artemia salina (Artemia salina; 1 mg/l, 6 hours): 2
Action against Artemia salina (Artemia salina; 1 mg/l, 24 hours): 3
Action against Artemia salina (Artemia salina; 1 mg/l, 48 hours): 3
Action against Artemia salina (Artemia salina; 2,5 mg/l, 6 hours): 2-3
Action against Artemia salina (Artemia salina; 2,5 mg/l, 24 hours): 3
Action against Artemia salina (Artemia salina; 2,5 mg/l, 48 hours): 3
Growth (destruction of a mixed culture of bacteria) ([5]; 5 mg/l, culture diluted 1/1000 in Tyrode): +
Growth (destruction of a mixed culture of bacteria) ([5]; 5 mg/l, culture diluted 1/10000 in Tyrode): +
Growth (destruction of a mixed culture of bacteria) ([5]; 10 mg/l, culture diluted 1/1000 in Tyrode): +
Growth (destruction of a mixed culture of bacteria) ([5]; 10 mg/l, culture diluted 1/10000 in Tyrode): +
Growth (destruction of a mixed culture of bacteria) ([5]; 30 mg/l, culture diluted 1/1000 in Tyrode): +
Growth (destruction of a mixed culture of bacteria) ([5]; 30 mg/l, culture diluted 1/10000 in Tyrode): +
Growth (destruction of a mixed culture of bacteria) ([5]; 60 mg/l, culture diluted 1/1000 in Tyrode): +
Growth (destruction of a mixed culture of bacteria) ([5]; 60 mg/l, culture diluted 1/10000 in Tyrode): +
Growth (destruction of a mixed culture of bacteria) ([5]; 100 mg/l, culture diluted 1/1000 in Tyrode): +
Growth (destruction of a mixed culture of bacteria) ([5]; 100 mg/l, culture diluted 1/10000 in Tyrode): +
Destruction, 5 mg/liter [6]: yes
MIC against fungi, strain N (Alternaria alternata): 2 µg/mL
MIC against fungi, strain M (Penicillium funiculosum): 5 µg/mL
MIC against fungi, strain L (Aspergillus phoenicis): 2 µg/mL
MIC [7]: 0.5 µg/mL
